Results reported in BindingDB's records for doi:10.1016/j.bmc.2009.08.047 (University of Padova, 2009).

Target: Casein kinase II subunit alpha (Rattus norvegicus, UniProt P19139)
Assay: CK2 Phosphorylation Assay
Details: pH 7.5; 37 °C
Experimental: Inhibitory effect of test compound was assessed in reaction buffer containing purified CK2, synthetic peptide substrate, and [gamma-33P]ATP. Assays were stopped by addition of 0.5 M orthophosphoric acid before spotting aliquots onto phosphocellulose filters. Filters were washed in 75 mM phosphoric acid (5-10 mL/each) four times then once in methanol and dried before counting. Inhibition constants were determined from Lineweaver-Burk double-reciprocal plots of data obtained in experiments run at fixed concentration of peptide substrate and at increasing concentrations of ATP either in the absence or in the presence of variable concentrations of inhibitor. Alternatively inhibition constants were also deduced from the IC50/Ki Cheng-Prusoff relationship.

Sequence of Casein kinase II subunit alpha (P19139 whole entry): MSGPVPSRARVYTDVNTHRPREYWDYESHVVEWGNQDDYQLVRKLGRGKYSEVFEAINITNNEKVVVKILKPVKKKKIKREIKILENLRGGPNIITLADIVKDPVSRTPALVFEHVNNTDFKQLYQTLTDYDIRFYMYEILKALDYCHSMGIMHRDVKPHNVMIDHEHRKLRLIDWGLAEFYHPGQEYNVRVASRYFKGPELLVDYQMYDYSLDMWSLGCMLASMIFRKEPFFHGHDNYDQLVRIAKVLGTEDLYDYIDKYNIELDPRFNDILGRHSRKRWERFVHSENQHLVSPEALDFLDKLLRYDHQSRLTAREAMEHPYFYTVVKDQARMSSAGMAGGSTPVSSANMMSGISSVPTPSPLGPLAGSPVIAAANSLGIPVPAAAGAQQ

Ki: 100 nM
Structure (SMILES): Brc1c(I)c(I)c2[nH]cnc2c1I [iodinated benzimidazole, 3a]
